In ChEMBL document CHEMBL5506005, “Biochemical and structural characterization of chlorhexidine as an ATP-assisted inhibitor against type 1 methionyl-tRNA synthetase from Gram-positive bacteria” (Eur J Med Chem, 2024) one finds inhibition and ΔTm data, which are given here for 4 compounds.

For assay [1], the target named is Methionine--tRNA ligase (Staphylococcus aureus (strain Mu50 / ATCC 700699)) (UniProt P67578). The assay is described as follows: Inhibition of Staphylococcus aureus MetRS expressed in Escherichia coli BL21(DE3) cells at 100 uM measured after 2.5 hrs in presence of ATP by pre-transfer editing assay relative to control.
Assay [2] shares this target. The assay is described as follows: Binding affinity to Staphylococcus aureus MetRS expressed in Escherichia coli BL21(DE3) cells assessed as change in melting temperature at 100 uM incubated for 10 mins followed by heat treatment in presence of 2 mM ATP by SYPRO orange dye based TSA (reference value: 56.4 degreeC).
The target is the same in assay [3]. The experiment in a line: Binding affinity to Staphylococcus aureus MetRS expressed in Escherichia coli BL21(DE3) cells assessed as change in melting temperature at 100 uM incubated for 10 mins followed by heat treatment by SYPRO orange dye based TSA (reference value: 53.7 degreeC).

Methionine--tRNA ligase (Staphylococcus aureus (strain Mu50 / ATCC 700699)), sequence (P67578 whole entry): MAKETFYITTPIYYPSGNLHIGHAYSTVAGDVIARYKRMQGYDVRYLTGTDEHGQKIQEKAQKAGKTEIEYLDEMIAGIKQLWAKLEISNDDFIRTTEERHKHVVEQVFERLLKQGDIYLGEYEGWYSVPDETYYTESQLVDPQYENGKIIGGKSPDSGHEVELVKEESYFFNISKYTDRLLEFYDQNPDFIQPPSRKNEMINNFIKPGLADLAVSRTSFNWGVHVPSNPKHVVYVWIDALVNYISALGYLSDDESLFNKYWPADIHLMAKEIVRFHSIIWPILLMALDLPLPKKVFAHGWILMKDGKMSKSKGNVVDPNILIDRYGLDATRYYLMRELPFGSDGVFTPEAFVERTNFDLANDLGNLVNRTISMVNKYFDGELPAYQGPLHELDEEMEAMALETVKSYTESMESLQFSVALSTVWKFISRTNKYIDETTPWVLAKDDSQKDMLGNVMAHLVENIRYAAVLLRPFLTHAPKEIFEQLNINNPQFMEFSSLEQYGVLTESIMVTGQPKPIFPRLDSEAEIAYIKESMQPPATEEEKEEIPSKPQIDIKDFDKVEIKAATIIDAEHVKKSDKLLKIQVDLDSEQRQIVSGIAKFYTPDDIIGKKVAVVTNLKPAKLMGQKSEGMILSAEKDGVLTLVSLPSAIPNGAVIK

On to VITAMIN E, for which, in assay [1], the inhibition – broadly, the percentage by which the read-out fell short of the control – is < 20%. For the same compound, the ΔTm (as a rule, the change in melting temperature against a reference sample) came out at 1 °C in assay [2] and 1.2 °C in assay [3].

In the case of `CCN(CC)CCCC(C)Nc1ccnc2cc(Cl)ccc12` (configuration not stated), the inhibition in assay [1] was < 20%. The ΔTm in assay [2] is 1.1 °C; in assay [3] it was -0.1 °C.

Consider `COc1cc(Nc2c(C#N)cnc3cc(OCCCN4CCN(C)CC4)c(OC)cc23)c(Cl)cc1Cl`, for which, in assay [1], the inhibition is 32.7%. Moreover, the ΔTm came out at 2.1 °C in assay [2] and 0.5 °C in assay [3].

With `C=C(F)c1sc(CNCCCNc2cc(=O)c3ccccc3[nH]2)c(C)c1Br`, in assay [1], the inhibition is > 99%. Also, the ΔTm in assay [2] stood at 20.3 °C; in assay [3], 16.2 °C.
